The text below walks through data of patent publication US7834024B2, “Compositions and methods for inhibition of the JAK pathway” (Rigel Pharmaceuticals, Inc., priority 2007, dated 2010).

Like-named read-outs stand apart in the source and are kept apart here.

Test [1] deals with Ramos B-Cell Line Stimulated with IL-4 (JAK-1 and JAK-3 / Stat-6, CD23). In words: Assay for Ramos B-Cell Line Stimulated with IL-4 (CD23 upregulation, FACS). It counts as cell-based. As to conditions: human Ramos B cells, compound 1 hour, IL-4 50 units/mL for 20-24 hours, anti-CD23-PE FACS, read-out: Example 2 (IC50). The gist of the method:
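Human Ramos B cells (5×10^4 per point, RPMI with 5% serum) pre-incubated 1 hour at 37° C with compound or DMSO, then stimulated with IL-4 at 50 units/mL final for 20-24 hours. CD23 upregulation measured by flow cytometry.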

Test [2] deals with JAK2 (BaF3 V617F cells, UKE-1). Nature of the test: Proliferation Assay (Cell Titer-Glo, 72 hours). The format is cell-based. As to conditions: proliferation 72 hours, BaF3 V617F or UKE-1 cells, cell line not given, read-out: Example 7 (IC50). The protocol:
• Dimethyl Sulfoxide (DMSO) (Sigma-Aldrich, Cat No. D2650) (Control) • Iscove's DMEM, ATCC Catalog #30-2005 • 1 M HEPES, Cellgro Catalog #25-060-Cl (100 mL) • 100 mM Sodium Pyruvate, Cellgro Catalog #25-000-Cl (100 mL) • Penicillin/Streptomycin, 10000 U/mL each, Cellgro Catalog #30-002-Cl (100 mL) • RPMI 1640 (Cellgro, Cat No. 10-040-CM) • Fetal Bovine Serum (JRH, Cat No. 12106-500M) • Donor Equine Serum, Hyclone Catalog #SH30074.02 (100 mL) • 50 μM hydrocortisone solution, Sigma Catalog #H6909-10 ml (10 mL) Culture Conditions
BaF3 V617F cells are maintained and plated in RPMI with 10% FBS. Plating density for these cells is 1×10^5 cells/mL.
UKE-1 are maintained and plated in Iscove's DMEM containing 10% FBS, 10% equine serum, 1% penicillin/streptomycin and 1 uM hydrocortisone. Plating density for these cells is 0.4×10^6 cells/mL
The cells were resuspended in a corresponding medium at a required cell density (see above). 100 μ of cell suspension was added to each well of a flat bottom 96 well white plate. The compound was serially diluted in DMSO from 5 mM in 3-fold dilutions, and then diluted 1:250 in the RPMI 1640 medium containing 5% FBS and pen/strep. 100 μL of resulting 2× compound solution was added per well in duplicate and the cells were allowed to proliferate for 72 hours at 37° C.
Proliferation was measured using Cell Titer-Glo. The substrate was thawed and allowed to come to room temperature. After removal of top 100 μL of medium from each well, 100 μL of the premixed Cell Titer-Glo reagent was added to each well. The plates were mixed on an orbital shaker for three minutes to induce lysis and incubated at ambient temperature for an additional five minutes to allow the signal to equilibrate. The Luminescence was read on the Wallac Plate Reader.
The results of the ability of the compounds of the invention to inhibit JAK2 activity, when tested in the above assay, are shown in the following Table IX wherein the level of activity (i.e. the IC50) for each compound is indicated in Table IX. Thae compound numbers in Table IX Refers to the compound disclosed herein as being preparded hy the methods disclosed herein: […]
In general terms: In ATP-based viability assays light output follows the ATP content of the culture.

As to `Cc1cnc(Nc2cccc(C#N)c2)nc1Nc1ccc2c(c1)N(C)C(=O)CO2` [II-10, N2-(3-Cyanophenyl)-5-methyl-N4-(4-methyl-3-oxo-2H-benzo[1,4]oxazin-6-yl)-2,4-pyrimidinediamine], the IC50 (commonly the point on the concentration scale where inhibition reaches its midpoint) in test [1] (Homo sapiens, Ramos) amounted to 116 nM; in test [2] it was 980 nM.

Take `CNC(=O)COc1cc(Nc2ncc(F)c(Nc3ccc4c(c3)NC(=O)C(C)(C)S4)n2)cc(OC)c1OC` [II-17, N2-[4,5-Dimethoxy-3-(N-methylaminocarbonylmethyleneoxy)phenyl]-N4-(2,2-dimethyl-3-oxo-4H-benzo[1,4]thiazin-6-yl)-5-fluoro-2,4-pyrimidinediamine]: the IC50 was 57.3 nM in test [1] and 160 nM in test [2].

Take `CNC(=O)COc1cc(Nc2ncc(F)c(Nc3ccc4c(c3)NC(=O)C(C)(C)O4)n2)cc(OC)c1OC` [II-18, N2-[4,5-Dimethoxy-3-(N-methylaminocarbonylmethyleneoxy)phenyl]-N4-(2,2-dimethyl-3-oxo-benzo[1,4]oxazin-6-yl)-5-fluoro-2,4-pyrimidinediamine]: the IC50 stood at 25.1 nM in test [1] and 653 nM in test [2].

In the case of `CNC(=O)COc1cc(Nc2ncc(F)c(Nc3ccc4c(n3)NCC(C)(C)O4)n2)ccc1OC` [II-32, N4-(3,4-Dihydro-2,2-dimethyl-2H-5-pyrido[1,4]oxazin-6-yl)-5-fluoro-N2-[4-methoxy-3-(N-methylaminocarbonylmethoxy)phenyl]-2,4-pyrimidinediamine], the IC50 was determined as 89.6 nM in test [1] and 1090 nM in test [2].

Take `CNC(=O)COc1cc(Nc2ncc(F)c(Nc3ccc4c(n3)NCC(C)(C)O4)n2)cc(OC)c1OC` [II-33, N4-(3,4-Dihydro-2,2-dimethyl-4H-5-pyrido[1,4]oxazin-6-yl)-N2-[3,4-dimethoxy-5-(N-methylaminocarbonylmethoxy)phenyl]-5-fluoro-2,4-pyrimidinediamine]: the results for the IC50 in test [1] and in test [2] were 75.2 nM and 489 nM, respectively.

As for `CNC(=O)COc1cccc(Nc2ncc(C)c(Nc3ccc4c(c3)N(C)C(=O)C(F)(F)O4)n2)c1` [II-37, N4-(2,2-Difluoro-4-methyl-3-oxo-4H-benzo[1,4]oxazin-6-yl)-5-methyl-N2-[3-(N-methylaminocarbonylmethyleneoxy)phenyl]-2,4-pyrimidinediamine], the figures for the IC50 in test [1] and in test [2] were 80.2 nM and 492 nM, respectively.

In the case of `Cc1cnc(Nc2cccc(C(N)=O)c2)nc1Nc1ccc2c(c1)N(C)C(=O)C(C)(C)O2` [II-39, N2-(3-Aminocarbonylphenyl)-5-methyl N4-(2,2,4-trimethyl-3-oxo-benz[1,4]oxazin-6-yl)-2,4-pyrimidinediamine], the IC50 in test [1] (Homo sapiens, Ramos) stood at 162 nM; in test [2], 550 nM.

For `Cc1cnc(Nc2cccc(C(N)=O)c2)nc1Nc1ccc2c(c1)N(C)C(=O)CS2` [II-41, N2-(3-Aminocarbonylphenyl)-N4-(3,4-dihydro-2H-4-methyl-3-oxo-benz[1,4]thiazin-6-yl)-5-methyl-2,4-pyrimidinediamine], the IC50 was determined as 129 nM in test [1] and 2070 nM in test [2].

In the case of `Cc1cnc(Nc2cccc(C(N)=O)c2)nc1Nc1ccc2c(c1)N(C)C(=O)C(C)(C)S2` [II-45, N2-(3-Aminocarbonylphenyl)-5-methyl-N4-(2,2,4-trimethyl-3-oxo-benz[1,4]thiazin-6-yl)-2,4-pyrimidinediamine], the IC50 stood at 179 nM in test [1] (Homo sapiens, Ramos) and 432 nM in test [2].

With `CNC(=O)COc1cccc(Nc2ncc(C)c(Nc3ccc4c(c3)NC(=O)C(F)(F)O4)n2)c1` [II-49, N4-(2,2-Difluoro-3-oxo[4H]benzo[1,4]oxazin-6-yl)-5-methyl-N2-[3-(N-Methylaminocarbonylmethyleneoxy)phenyl]-2,4-pyrimidinediamine], the IC50 in test [1] came to 98 nM; in test [2], 16400 nM.

For the compound `CN1C(=O)C(C)(C)Oc2ccc(Nc3nc(Nc4ccc5c(c4)C(=O)NCC5)ncc3F)nc21` [IV-2, 5-Fluoro-N2-(1-oxo-1,2,3,4-tetrahydroisoquinolin-7-yl)-N4-[3-oxo-2,2,4-trimethyl-5-pyrido[1,4]oxazin-6-yl]-2,4-pyrimidinediamine], the IC50 in test [1] (Homo sapiens, Ramos) worked out at 748 nM; in test [2] it was 4120 nM.

“N2-(3-Aminocabonylphenyl)-N4-(3,4-dihydro-2H-4-methyl-3-oxo-5-pyrido[1,4]oxazin-6-yl)-2,4-pyrimidinediamine [II-42]”: the IC50 in test [1] amounted to 180 nM; in test [2], 1640 nM.
